Data reported in EP2399598B1, “Blockade of CCL18 signaling via CCR6 as a therapeutic option in fibrotic diseases and cancer” (Universitätsklinikum Freiburg, priority 2010, dated 2014).
“Also recorded” adds a separate entry of the source.

Test system: CCR6
Assay: Inhibition of CCL18-induced CCR6 down-regulation on mononuclear cells (flow cytometry)
Format: cell-based
Details: freshly isolated human lymphocytes/PBMNC, 20 minutes, FACS; for CCL18 induced down-regulation of CCR6 expression: CCL18 10 ng/ml plus inhibitor 100 ng/ml
Experimental: Freshly isolated mononuclear cells were incubated for 20 minutes with 10 ng/ml of CCL18, 100ng/ml of the inhibitor peptide PS-AU-105 (polypeptide according to SEQ ID NO.:1), a combination of both or were left untreated. The incubation was performed in RPMI1640 with 10% fetal calf serum and 100 U/ml Streptomycin/Penicillin at 37°C. After the incubation, the cells were centrifugated and the supernatant was discarded. The cells were fixed with 4% paraformaldehyde for 5 minutes on ice and washed twice in PBS containing 1% FCS. After fixation the cells were stained using a fluorescein-conjugated antibody against CCR6 (R&D systems, Wiesbaden, FRG) and analyzed by flow cytometry (FACScalibur and Quantiquest; both Beckon Dickinson, Franklin Lakes, USA).
This CCL18 induced redaction of CCR6 expression is diminished in the presence of the inhibitor peptide PS-AU-105 (polypeptide according to SEQ ID No.: 1).

Question: Which “CCL18 induced down-regulation of CCR6 expression” value does the source give for “PS-AU-105: inhibitor peptide, polypeptide according to SEQ ID NO.:1; 29 amino acids, artificial, peptide inhibitor of CCR6 (EDCCLVYTSWQIHPKFIVDYSETSPQCPK)” here?
Answer: The value was “diminished; also recorded: fails to down-regulate the CCR6^+ sub-population”.

Question: What about the “CCL18 induced down-regulation of CCR6 expression” value (listed as PS-AU-1015) of the same substance?
Answer: Its value is “this down-regulation docs not occur”.

Question: What about the “CCR6 expression, inhibitor only” value (inhibitor 100 ng/ml alone) of the same substance?
Answer: The value was “no effect”.
